According to patent US6387948B1, “8-Acetylarteminolide and process for preparing same” (Korea Research Institute of Bioscience and Biotechnology, priority 2000, dated 2002):
Values after ≈ are worked out from the molar mass of the structure shown. Values joined by “and” are separate entries in the source; they are usually repeats but may differ in a detail not shown here. Identical values can stand only once.

Columns and labels:
[1] = Solubility (physicochemical properties)
[2] = test system: Human breast cancer cell line MCF-7; experiment: Cell-cycle inhibiting activity, propidium iodide FACS analysis; format: cell-based; settings: MCF7, G2 to M phase progression, read-out: concentration required for inhibiting the progression of the cell cycle by 50%
[3] = biological target: T1, farnesyl-protein transferase(FPTase) (Rattus norvegicus, UniProt Q02293+Q04631); experiment: Farnesyl-protein transferase inhibiting activity, scintillation proximity assay (SPA); format: biochemical, white rat; settings: rat cerebrum FPTase, 3H-FPP, biotin-lamin B peptide; read-out: concentration required for inhibiting farnesyl protein transferase by 50%(IC50) (converted)
T1 construct: the cerebrum of a white rat(male Sprague Dowley weighing 100-150 g) was washed with physiological saline solution and homogenized; from tissue; host or cells: rat cerebrum (male Sprague Dawley)
Protocol: Farnesyl-protein transferase(FPTase) activity was determined in accordance with the scintillation proximity assay(SPA) method of Blown et al. described in Cell, 62, 1(1990) by using ^3H-farnesyl pyrophosphate(^3H-FPP) as a substrate.
First, the cerebrum of a white rat(male Sprague Dowley weighing 100-150 g) was washed with physiological saline solution and homogenized. The homogenized solution was centrifuged and partially purified by using Q sepharose fast flow column(Pharmacia, co.) to obtain famnesyl protein transferase(FPTase).
10 μl of 8-acetylarteminolide, 40 μl of FPTase obtained above, 10 μl of an assay buffer(50 mM Tris-HCl, pH 7.5, 25 mM MgCl2, 2 mM KCl, 5 mM DTT, 5 mM Na2HPO4, 0.01% Triton X-100), 20 μl of diluted ^3H-FPP and 20 μl of biotin-lamin B peptide were mixed together and the resulting mixture was reacted at room temperature for 30 minutes. 150 μl of SPA bead/stop reagent solution(Amersham, Inc. UK) was added to the mixture and the enzymatic activity was determined by examining the extent of biotin-lamin B peptide farneslyation, expressed by unit of count per minute(CPM), with a liquid scintillation counter.
The FPTase inhibiting activity was then calculated in accordance with the following equation: [formula] […]

Angiogenesis = experiment: Angiogenesis-suppressing activity, chorioallantoic membrane(CAM) assay; format: in vivo; settings: Gallus gallus; 10 μg/ml, CAM of fertilized chicken eggs
Protocol: Angiogenesis was determined in accordance with the chorioallantoic membrane(CAM) assay method described in Kusaka et al., Biochem. Biophy. Res. Comm., 174, 1070(1991), using fertilized chicken eggs.
A fertilized chicken egg(Pulmuwon co., Korea) was incubated at 37-38° C. and a humidity of more than 90%. Here, 0 day-embryo means that the fertilized egg had been stored at 18° C. for less than 4 days since laying.
The pointed end of the fertilized egg was scratched with a knife, laid horizontally, the scratched site was punctured with a 5 ml syringe and 2 ml of albumin was extracted from the fertilized egg. The puncture hole was then sealed with a glass-tape. The fertilized egg, positioned such that the sealed hole was at the bottom, was incubated under the same condition described above.
The end of the fertilized egg where the air sac is located, i.e., the end opposite to the hole site was opened, a window having a diameter of 2-3 cm was installed therein, the window was sealed with a glass-tape, and the incubation was resumed.
By this time, a CAM of 2-5 mm diameter had developed. 8-Acetylarteminolide was dissolved in ethanol to a concentration of 10 μg/ml, 10 μl of the solution was dropped on quartered Thermanox coverslip(Nunc, Co.,) and dried in a clean bench. […]
Angiogenesis suppressing activity was then calculated in accordance with the following equation: [formula]

[4] = test system: Human breast cancer cell line MCF-7; experiment: Cell-cycle inhibiting activity, propidium iodide FACS analysis; format: cell-based; settings: for % of cells G0/G1 phase / % of cells G2/M phase / % of cells S phase: 7.5 μl of 5 mg/ml DMSO solution in 7.5 ml medium
Protocol: Human breast cancer cell line MCF-7(ATCC HTB-22) was divided into 7.5 ml portions of RPMI1640 culture medium(GIBCO BRL) kept in T25 flasks and incubated at 37° C. under an atmosphere containing 5% CO2 for 12 hours. Added to the cell cultures of one group of flasks was 7.5 μl of DMSO solution containing 5 mg/ml of 8-acetylarteminolide obtained in Example 1, while 7.5 μl of pure DMSO was added to the cultures of another group of flasks as a control, followed by incubation at 37° C. under an atmosphere containing 5% CO2 for 12, 24 and 36 hours, respectively.
To examine the activity of inventive compound in inhibiting the progression of the cell cycle, each of the cultures was treated with trypsin and centrifuged at 200×g for 5 minutes, and then, the cell precipitate was washed twice with cold PBS. 3 ml of 70% ethanol was added thereto and the resulting mixture was left standing at −20° C. for 12 hours to fix the cell. The resulting mixture was centrifuged at 200×g for 5 minutes and the cell precipitate was washed twice with PBS to remove remaining ethanol. Added to the cell precipitate in sequence were 1 ml of PBS and 50 μl RNase A solution(100 μg/ml). The mixture was reacted at 37° C. for 30 minutes and 10 μl of PBS containing 1 mg/ml of propidium iodide was added thereto.
The cell cycles of 20,000 stained cells were analyzed by using Becton-Dickinson FACS Calibur and Becton-Dickinson Modifit cell-cycle analysis program.

SMILES: C=C1C(=O)OC2C1CCC(C)(O)C13C=CC(C)(C21)C1(C3)C(=O)OC2C3C(C)=CC(=O)C3=C(C)CC(OC(C)=O)C21 (stereo not shown) [8-acetylarteminolide]
- Solubility Insoluble: ([1]; solvents in which insoluble): hexane, H2O
- Solubility Soluble: ([1]; solvents in which soluble): alcohol, acetone, chloroform, DMSO
- IC50 [2]: ~5 µg/mL (≈ 9.11 µM)
- IC50 [3]: ~1820 nM and ~1800 nM and 1820 nM and 1800 nM
- inhibition at 10 µg/mL (Angiogenesis): 60%
- % of cells G0/G1 phase ([4]; MCF-7, 12 hours): 47.59%
- % of cells G2/M phase ([4]; MCF-7, 12 hours): 18.06%
- % of cells S phase ([4]; MCF-7, 12 hours): 34.35%
- percentage of cells in the G2/M phase compared to the control cells ([4]; MCF-7, 24 hours): 10 fold
- % of cells G0/G1 phase ([4]; MCF-7, 24 hours): 47.49%
- % of cells G2/M phase ([4]; MCF-7, 24 hours): 27.97%
- % of cells S phase ([4]; MCF-7, 24 hours): 24.54%
- percentage of cells in the G2/M phase compared to the control cells ([4]; MCF-7, 36 hours): two-fold higher
- % of cells G0/G1 phase ([4]; MCF-7, 36 hours): 73.2%
- % of cells G2/M phase ([4]; MCF-7, 36 hours): 19.79%
- % of cells S phase ([4]; MCF-7, 36 hours): 7.01%
